The target of this experiment is T1, B. subtilis RNAP (Bacillus subtilis, UniProt P37870+P37871).
T1 construct: endogenous in cells; host or cells: Bacillus subtilis strain PL37 (built from strain 168)
Description: Dual reporter assay in strain PL37: test reporter Pxyl-lacZ and ratio of control to test reporter (RES:MUG). The following applies: strain PL37, DMSO control […]. Type of experiment: cell-based. The protocol:
20 known antibiotics were tested at a range of concentrations to determine their effect on test and control reporters within the assay. […] Cultures of PL37 grown in PAB, were diluted to 0.05 A600 and then grown for 2 hours at 37° C. in PAB supplemented with 0.02 mM IPTG. Cells were pelleted and frozen. They were later resuspended and diluted in PAB supplemented with 0.02 mM IPTG and grown at 37° C. to early exponential phase. Cultures were then diluted to 0.05 A600 in PAB and added in 20 μl volumes to wells of microtitre plates containing 20 μl volumes of the antibiotics. Plates were incubated at 37° C. for two hours, and assay mix was added to detect reporter enzyme activity (see below).
Following the addition of 160 μl of assay mix (1.3×Z buffer containing 94 μg/ml lysozyme, 8.4 μg/ml 4-methylumbelliferyl-β-D-galactoside, 0.53 μg/ml resorufin-β-D-glucuronide and 0.05% Triton) to each well, the microtitre plate was incubated in the dark for 30 mini or 1 hour at room temperature. Fluorescence was read on a BMG FLUOstar Galaxy at excitation/emission 355/460 nm and 544/590 nm, respectively, with gains set at 5 and 25, respectively.
For orientation: Reporter assays use an easily measured gene product as a stand-in for the process of interest.

[1] abbreviates: Dilution Number 1 (highest concentration tested: 128, 16 or 0.5 μg/ml depending on antibiotic).
The mark [2] stands for this setting: Dilution Number 11 (lowest concentration tested: 0.125, 0.016 or 0.0005 μg/ml depending on antibiotic).

Positions of bridges follow the written chain, without caps; N, C: chain ends. Non-standard residues stand in square brackets, D forms with d. Residues, ends and D or L forms follow the SMILES beside them. *: point of attachment. Ileψ(thiazoline)Cys = CC[C@H](C)[C@H](N)C1=N[C@H](C(=O)*)CS1; dOrn = NCCC[C@@H](N)C(=O)O

T1 sequence (P37871 whole entry): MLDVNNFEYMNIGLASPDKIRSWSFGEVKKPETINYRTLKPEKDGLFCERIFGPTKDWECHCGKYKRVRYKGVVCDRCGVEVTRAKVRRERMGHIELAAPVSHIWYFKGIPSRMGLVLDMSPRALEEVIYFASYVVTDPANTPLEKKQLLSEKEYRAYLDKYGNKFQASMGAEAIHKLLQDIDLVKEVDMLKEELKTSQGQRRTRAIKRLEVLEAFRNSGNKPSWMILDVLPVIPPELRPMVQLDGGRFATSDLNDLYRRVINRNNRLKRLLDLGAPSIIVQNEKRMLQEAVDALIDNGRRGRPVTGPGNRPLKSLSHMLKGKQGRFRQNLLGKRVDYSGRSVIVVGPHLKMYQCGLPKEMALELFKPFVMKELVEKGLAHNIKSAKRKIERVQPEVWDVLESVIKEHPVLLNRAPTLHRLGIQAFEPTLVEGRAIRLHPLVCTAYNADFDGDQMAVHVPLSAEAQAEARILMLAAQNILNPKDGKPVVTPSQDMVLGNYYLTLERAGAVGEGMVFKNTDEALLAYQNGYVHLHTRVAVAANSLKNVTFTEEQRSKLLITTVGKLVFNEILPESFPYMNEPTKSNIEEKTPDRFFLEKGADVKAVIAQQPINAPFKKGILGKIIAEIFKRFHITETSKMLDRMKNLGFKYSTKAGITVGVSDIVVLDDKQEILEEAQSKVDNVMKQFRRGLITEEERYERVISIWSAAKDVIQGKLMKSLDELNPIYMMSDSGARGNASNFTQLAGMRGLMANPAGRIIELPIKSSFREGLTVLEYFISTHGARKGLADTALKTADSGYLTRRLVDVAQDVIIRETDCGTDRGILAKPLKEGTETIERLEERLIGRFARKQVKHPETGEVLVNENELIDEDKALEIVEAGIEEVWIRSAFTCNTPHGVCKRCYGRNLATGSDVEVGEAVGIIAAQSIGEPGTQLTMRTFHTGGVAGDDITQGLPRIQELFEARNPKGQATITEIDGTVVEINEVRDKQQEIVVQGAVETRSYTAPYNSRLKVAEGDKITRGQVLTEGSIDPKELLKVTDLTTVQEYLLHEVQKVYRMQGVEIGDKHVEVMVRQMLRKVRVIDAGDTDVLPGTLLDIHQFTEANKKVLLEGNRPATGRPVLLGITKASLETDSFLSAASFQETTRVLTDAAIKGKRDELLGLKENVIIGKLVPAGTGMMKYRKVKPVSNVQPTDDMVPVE
T1 sequence (P20429 whole entry, further chain): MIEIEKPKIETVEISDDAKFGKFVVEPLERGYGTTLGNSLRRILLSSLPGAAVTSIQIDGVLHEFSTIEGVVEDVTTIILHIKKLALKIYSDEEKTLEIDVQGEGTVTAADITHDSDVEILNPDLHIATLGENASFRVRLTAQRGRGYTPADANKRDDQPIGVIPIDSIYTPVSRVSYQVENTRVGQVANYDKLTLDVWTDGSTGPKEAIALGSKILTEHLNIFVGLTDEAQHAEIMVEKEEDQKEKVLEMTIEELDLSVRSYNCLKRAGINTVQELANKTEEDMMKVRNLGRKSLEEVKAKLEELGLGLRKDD
T1 sequence (O35011 whole entry, further chain): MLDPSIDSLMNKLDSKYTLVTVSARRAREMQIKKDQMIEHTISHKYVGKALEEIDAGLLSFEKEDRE
T1 sequence (P37870 whole entry): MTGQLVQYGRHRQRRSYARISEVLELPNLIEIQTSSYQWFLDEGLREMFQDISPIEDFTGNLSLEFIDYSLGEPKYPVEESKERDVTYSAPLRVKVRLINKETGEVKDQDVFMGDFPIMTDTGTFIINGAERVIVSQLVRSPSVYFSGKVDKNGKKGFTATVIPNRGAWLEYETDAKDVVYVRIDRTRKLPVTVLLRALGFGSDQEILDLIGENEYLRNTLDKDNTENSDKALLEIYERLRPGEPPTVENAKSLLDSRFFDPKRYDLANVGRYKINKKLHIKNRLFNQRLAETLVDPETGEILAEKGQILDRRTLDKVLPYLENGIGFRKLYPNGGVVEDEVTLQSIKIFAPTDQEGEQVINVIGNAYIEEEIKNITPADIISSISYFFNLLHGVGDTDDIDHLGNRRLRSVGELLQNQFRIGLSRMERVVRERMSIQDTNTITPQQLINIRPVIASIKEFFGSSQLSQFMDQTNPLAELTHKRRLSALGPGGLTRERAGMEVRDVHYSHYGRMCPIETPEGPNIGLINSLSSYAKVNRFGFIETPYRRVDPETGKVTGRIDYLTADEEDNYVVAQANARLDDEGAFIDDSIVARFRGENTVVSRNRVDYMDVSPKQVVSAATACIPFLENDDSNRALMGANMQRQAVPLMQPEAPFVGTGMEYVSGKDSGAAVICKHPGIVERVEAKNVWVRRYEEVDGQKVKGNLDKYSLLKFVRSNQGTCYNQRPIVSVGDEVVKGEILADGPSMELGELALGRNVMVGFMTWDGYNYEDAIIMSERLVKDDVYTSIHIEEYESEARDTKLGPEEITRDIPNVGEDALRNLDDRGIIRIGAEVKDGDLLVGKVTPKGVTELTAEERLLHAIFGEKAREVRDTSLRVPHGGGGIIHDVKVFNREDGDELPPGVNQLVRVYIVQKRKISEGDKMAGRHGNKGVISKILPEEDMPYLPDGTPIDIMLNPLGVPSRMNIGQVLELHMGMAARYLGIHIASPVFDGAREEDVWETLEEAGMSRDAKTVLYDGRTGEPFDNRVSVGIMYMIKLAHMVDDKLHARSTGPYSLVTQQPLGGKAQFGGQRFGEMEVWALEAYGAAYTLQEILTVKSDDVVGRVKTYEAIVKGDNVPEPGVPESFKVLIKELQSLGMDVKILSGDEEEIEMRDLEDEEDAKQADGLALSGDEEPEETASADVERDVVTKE

With `O=C(N[C@H](CO)[C@H](O)c1ccc([N+](=O)[O-])cc1)C(Cl)Cl` [Chloramphenicol], the “Ratio of the control reporter (RES): test reporter (MUG)” value (from here on “Ratio of the control reporter (RES)”) was 1.10 under setting [1]; 1.22 (Dilution Number 2); 1.27 (Dilution Number 3); 1.40 (Dilution Number 4); 1.90 (Dilution Number 5); 1.51 (Dilution Number 6). The “Ratio of the control reporter (RES)” value is, setting by setting: (Dilution Number 7) 1.20; (Dilution Number 8) 1.16; (Dilution Number 9) 1.14; (Dilution Number 10) 1.13; under setting [2], 1.17.
Regarding Polymyxin, the “Ratio of the control reporter (RES)” value stood at 1.19 under setting [1]; 1.22 (Dilution Number 2); 1.21 (Dilution Number 3); 1.23 (Dilution Number 4); 1.44 (Dilution Number 5); 1.24 (Dilution Number 6). Further, the “Ratio of the control reporter (RES)” value reads like this: (Dilution Number 7) 1.20; (Dilution Number 8) 1.15; (Dilution Number 9) 1.16; (Dilution Number 10) 1.16; under setting [2], 1.17.
As to `CC[C@H](C)[C@H](N)C1=N[C@H](C(=O)N[C@@H](CC(C)C)C(=O)N[C@H](CCC(=O)O)C(=O)N[C@H](C(=O)N[C@H]2CCCCNC(=O)[C@H](CC(N)=O)NC(=O)[C@@H](CC(=O)O)NC(=O)[C@H](Cc3cnc[nH]3)NC(=O)[C@@H](Cc3ccccc3)NC(=O)[C@H]([C@@H](C)CC)NC(=O)[C@@H](CCCN)NC2=O)[C@@H](C)CC)CS1` [Bacitracin] ({Ileψ(thiazoline)Cys}-L[dE]IK[dOrn]I[dF]H[dD]N; lactam 4-C), the “Ratio of the control reporter (RES)” value reads like this: under setting [1], 1.32; (Dilution Number 2) 1.15; (Dilution Number 3) 1.12; (Dilution Number 4) 1.11; (Dilution Number 5) 1.14; (Dilution Number 6) 1.13. The “Ratio of the control reporter (RES)” value reads like this: (Dilution Number 7) 1.09; (Dilution Number 8) 1.09; (Dilution Number 9) 1.09; (Dilution Number 10) 1.12; under setting [2], 1.13.
In the case of `CCn1cc(C(=O)O)c(=O)c2ccc(C)nc21` [Nalidixic Acid], the “Ratio of the control reporter (RES)” value runs as follows: under setting [1], 1.50; (Dilution Number 2) 1.76; (Dilution Number 3) 1.74; (Dilution Number 4) 0.87; (Dilution Number 5) 0.68; (Dilution Number 6) 0.91. Moreover, the “Ratio of the control reporter (RES)” value is, setting by setting: (Dilution Number 7) 1.18; (Dilution Number 8) 1.25; (Dilution Number 9) 1.26; (Dilution Number 10) 1.26; under setting [2], 1.22.
For the compound `CCC[C@@H]1C[C@@H](C(=O)N[C@@H]([C@H]2O[C@H](SC)[C@H](O)[C@@H](O)[C@H]2O)[C@@H](C)O)N(C)C1` [Lincomycin], the “Ratio of the control reporter (RES)” value reads like this: under setting [1], 1.09; (Dilution Number 2) 1.20; (Dilution Number 3) 1.29; (Dilution Number 4) 1.61; (Dilution Number 5) 1.91; (Dilution Number 6) 1.40. Further, the “Ratio of the control reporter (RES)” value runs as follows: (Dilution Number 7) 1.08; (Dilution Number 8) 0.99; (Dilution Number 9) 1.02; (Dilution Number 10) 1.03; under setting [2], 1.08.
`CC1(C)S[C@@H]2[C@H](NC(=O)[C@H](N)c3ccccc3)C(=O)N2[C@H]1C(=O)O` [Ampicillin]: the “Ratio of the control reporter (RES)” value runs as follows: (Dilution Number 9) 1.16; (Dilution Number 10) 1.02; under setting [2], 1.06.
Turning to `CC[C@H]1OC(=O)[C@H](C)[C@@H](O[C@H]2C[C@@](C)(OC)[C@@H](O)[C@H](C)O2)[C@H](C)[C@@H](O[C@@H]2O[C@H](C)C[C@H](N(C)C)[C@H]2O)[C@](C)(O)C[C@@H](C)C(=O)[C@H](C)[C@@H](O)[C@]1(C)O` [Erythromycin], the “Ratio of the control reporter (RES)” value reads like this: (Dilution Number 4) 1.45; (Dilution Number 5) 1.58; (Dilution Number 6) 1.72; (Dilution Number 7) 1.73; (Dilution Number 8) 1.71; (Dilution Number 9) 1.56.
With `CC1=C(C(=O)O)N2C(=O)[C@@H](NC(=O)[C@H](N)c3ccccc3)[C@H]2SC1` [Cephalexin], the “Ratio of the control reporter (RES)” value reads like this: under setting [1], 1.73; (Dilution Number 2) 1.78; (Dilution Number 3) 1.76; (Dilution Number 4) 1.62; (Dilution Number 5) 1.68; (Dilution Number 6) 1.81.
As to `CC1(C)S[C@@H]2[C@H](NC(=O)C(C(=O)O)c3ccccc3)C(=O)N2[C@H]1C(=O)O` (stereo partly shown) [Carbenicillin], the “Ratio of the control reporter (RES)” value by setting is: under setting [1], 1.37; (Dilution Number 2) 1.49; (Dilution Number 3) 1.59; (Dilution Number 4) 1.63; (Dilution Number 5) 1.66; (Dilution Number 6) 1.64. In addition, the “Ratio of the control reporter (RES)” value by setting is: (Dilution Number 7) 1.60; (Dilution Number 8) 1.03; (Dilution Number 9) 1.00; (Dilution Number 10) 1.05; under setting [2], 1.07.
As for `CC(O)C(=O)O.COc1cc(Cc2cnc(N)nc2N)cc(OC)c1OC` [Trimethoprim Lactate], the “Ratio of the control reporter (RES)” value was 0.62 under setting [1]; 0.55 (Dilution Number 2); 0.54 (Dilution Number 3); 0.52 (Dilution Number 4); 0.54 (Dilution Number 5); 0.58 (Dilution Number 6). In addition, the “Ratio of the control reporter (RES)” value by setting is: (Dilution Number 7) 0.68; (Dilution Number 8) 0.65; (Dilution Number 9) 0.63; (Dilution Number 10) 0.81; under setting [2], 1.00.
For `CCn1cc(C(=O)O)c(=O)c2cc3c(cc21)OCO3` [Oxolinic Acid], the “Ratio of the control reporter (RES)” value is 0.89 under setting [1]; 1.33 (Dilution Number 2); 1.63 (Dilution Number 3); 1.77 (Dilution Number 4); 2.02 (Dilution Number 5); 1.86 (Dilution Number 6). The “Ratio of the control reporter (RES)” value reads like this: (Dilution Number 7) 0.96; (Dilution Number 8) 1.06; (Dilution Number 9) 1.05; (Dilution Number 10) 1.14; under setting [2], 1.17.

For the origin of these results see US20040072206A1, “Method for identifying modulators of transcription” (priority 2000, published 2004).
